Experimental findings from patent US20200222418A1, “USE OF PHENOTHIAZINE DERIVATIVE IN THE TREATMENT OF INFECTION CAUSED BY BACTERIA CARRYING TYPE IV PILI” (priority 2017, published 2020) are described below.

“Also recorded” adds a separate entry of the source.

Assay [1] deals with HDMECs infected with Nm2C4.3. The experiment in a line: Cytoskeleton remodelling and cell junction integrity of infected HDMEC (immunofluorescence). Type of assay: cell-based, human. The settings on record: Gentamicin 150 μg/ml 1 h, Trifluoperazine 50 μM applied after gentamicin. The method, then: (A) Experimental procedure: HDMEC were infected for 2 h with Nm2C4.3, treated for 1 h with gentamicin (150 μg/ml) and then 15 min with Trifluoperazine (50 μM) (or solvent alone as a control) and left in medium for 1 h before fixation. (B) Upper panels: Representative fluorescence microscopy showing the effect on the endothelial cell cytoskeleton remodelling analysed by immunostaining of Ezrin and Actin. Lower panels: Effect on the endothelial cell junction integrity was analysed by immunostaining of Actin and VE-cadherin. (C) Quantification of the bacterial colonization (upper panel) Ezrin recruitment and cortical actin polymerization at sites of bacterial adhesion (lower panel) was performed using Image J software.
HDMECs were grown in their specific culture medium (Promocell #C-12210) and confluent monolayers were infected with 2C4.3. Briefly, bacteria were precultured in prewarmed cell culture medium for 1 h 30 min at 37° C. 5% CO2. The OD600 was adjusted to 0.1 and HDMECs were then overlaid with bacteria for 30 min (MOI of 100). Unbound bacteria were removed by three washes in cell culture media and infection was allowed to proceed for 1 h at 37° C. 5% CO2. Gentamicin was added at 150 μg/ml for 1 h, then after three washes in cell culture media, Trifluoperazine was applied where mentioned at 50 μM for 20 min. After three washes in cell culture media, cells were allowed to recover for 1 h in cell culture media. At the indicated time, cells were fixed with 4% Paraformaldehyde for 10 min. Immunolabelling was then performed as above described in example 4, using DAPI, Alexa Fluor 633 Phalloidin, Polyclonal antisera raised against Ezrin, obtained from Pr P. Mangeat (CRBM, Montpellier, France) and anti-human VE-Cadherin (eBioscience #BMS158).

Assay [2] concerns N. meningitidis Nm2C4.3 strain. The experiment in a line: Bactericidal activity, colony forming unit count after treatment in liquid culture. The settings on record: 15 min; for bactericidal effect: Gentamicin 150 μg/ml, Trifluoperazine 10 to 50 μM. The assay is classed as cell-based, Neisseria meningitidis. As to the method:
N. meningitidis Nm2C4.3 strain grown in liquid culture at 10^7 CFU/ml were treated with increasing concentrations of Trifluoperazine (10 to 50 μM) or Gentamicin (150 μg/ml) for 15 minutes (A) Bactericidal activity was determined by the count of colony forming units on GCB agar plates 24 h after treatment. (B) Images of the non-treated bacteria or bacteria treated with 30 μM TFP grown for 24 h on GCB agar plates.
Nm2C4.3, a piliated capsulated Opa^−Opc^− variant of the serogroup C meningococcal clinical isolate 8013, was cultured in Dulbecco's Modified Eagle Medium (DMEM) 4.5 g/L-Glutamax media 0.1% BSA during two hours at 37° C. 5% CO2. A bacterial suspension at optical density (OD) 0.1 was then distributed in 24-well plate (1 ml/well). After 1 hour of incubation, Trifluoperazine (Sigma #T8516, stock solution in PBS) was added to obtain final concentrations of 10, 20, 30, 40, and 50 μM. Gentamicin (150 μg/ml in DMEM) and PBS alone were used as controls. After 15 min treatment, serial dilutions were performed in physiological water and 100 μl of each dilution were plated on Petri dishes containing GCB solid media (BD, Difco GC media) containing supplements, incubated overnight and the colony forming units were counted.

The test system of assay [3] is N. meningitidis 2C4.3 aggregates. Type of assay: cell-based, Neisseria meningitidis. The settings on record: for dispersion of bacterial aggregates formed in suspension: aggregates pre-formed 2 h, 20 min, Trifluoperazine 10-40 μM, Gentamicin 150 μg/ml, Cefotaxim 20 μg/ml. The method, then: N. meningitidis 2C4.3 was grown in liquid culture at 10^7 CFU/ml for 2 h to form bacterial aggregates and were treated with increasing concentrations of Trifluoperazine (10 to 40 μM), Gentamicin (150 μg/ml) or cefotaxim (20 μg/ml) for 20 minutes and bacterial aggregates were immediately visualized using a phase-contrast microscope. […] (B) Quantification of the bacterial aggregation was performed using Image J software.
N. meningitidis 2C4.3 wild type strain and the isogenic derivative mutant PilT ([…]PiIT) were grown in liquid culture at 10^7 CFU/ml for 2 h to form bacterial aggregates and then treated with 50 μM Trifluoperazine. Time lapse phase-contrast video microscopy was performed to visualize the effect on bacterial aggregates over time. Images were taken at the indicated time points of the video.
N. meningitidis 2C4.3 was grown in liquid culture at 10^7 CFU/ml for 2 h to form bacterial aggregates and were treated with 30 μM Trifluoperazine for 30 minutes to induce bacterial dispersion or PBS as a control. The medium was replaced to remove the Trifluoperazine and the reformation of bacterial aggregates were visualized overtime using a phase-contrast microscope.
Bacteria were grown in suspension for 2 h then Phenothiazine derivatives were added at the indicated concentrations.
N. meninigitidis 2C4.3 strain was grown in suspension in wells of a 24 well plate, containing 1 ml of DMEM medium supplemented with 10% heat-inactivated fetal calf serum. After 2 h of growth, Trifluoperazine (or control vehicle) was added at various concentrations ranging from 10 to 40 μM for 20 min and the bacterial aggregates were visualized over time using a phase-contrast microscope.
N. meninigitidis 2C4.3 strain was grown in suspension in wells of a 24 well plate, containing 1 ml of DMEM medium supplemented with 10% heat-inactivated fetal calf serum. After 2 h of growth, various concentrations (0.5 to 80 μM) of phenothiazine-derivative compounds or control vehicle (PBS or DMSO) were added to the wells for 30 min and the bacterial aggregates were visualized using a phase-contrast microscope. Were tested phenothiazine-derivative compounds of: • the Piperazine group: Trifluoperazine (Sigma #T8516), Fluphenazine (Sigma #F4765), Prochlorperazine (Sigma #P9178) Perphenazine (Sigma #P6402); • the Piperidine group: Thioridazine (Sigma #T9025) and Mesoridazin (Sigma #M4068); • the Aliphatic group: Chlorpromazine (Sigma #C8138), Promazine (Sigma #P6656), Triflupromazine (Sigma #1686003) and levomepromazine (Sigma #L0500000).

Take `CN[C@@H]1[C@@H](O)C(O[C@@H]2[C@@H](O)[C@H](O[C@H]3O[C@H]([C@@H](C)NC)CC[C@H]3N)[C@@H](N)C[C@H]2N)OC[C@]1(C)O` (stereo partly drawn) [Gentamicin, (3R,4R,5R)-2-{[(1S,2S,3R,4S,6R)-4,6-diamino-3-{[(2R,3R,6S)-3-amino-6-[(1R)-1-(methylamino)ethyl]oxan-2-yl]oxy}-2-hydroxycyclohexyl]oxy}-5-methyl-4-(methylamino)oxane-3,5-diol]: in assay [1], the “Ezrin recruitment and cortical actin polymerization at bacterial adhesion sites” value was “still induced Ezrin recruitment, cortical actin polymerization”; the “VE-cadherin staining / endothelial cell junction integrity” value is reported as “discontinuous distribution of VE-cadherin”; the “bacterial colonies at the endothelial cell surface” value is given as “reduced the number of colonies”. For the same compound, the bactericidal effect result in assay [2] is “killed all bacteria”. In assay [3], the “dispersion of bacterial aggregates formed in suspension” value is on record as “did not significantly induce the dispersion”.

Consider `CN1CCN(CCCN2c3ccccc3Sc3ccc(C(F)(F)F)cc32)CC1` [Trifluoperazine], for which, in assay [1], the “Ezrin recruitment and cortical actin polymerization at bacterial adhesion sites” value is listed as “Few Ezrin recruitment”; the “VE-cadherin staining / endothelial cell junction integrity” value is given as “preserved endothelial cell junction integrity”; the “bacterial colonies at the endothelial cell surface” value is “induced their dispersion; also recorded: induced the dispersion of most of the bacterial colonies”. In assay [2], the bactericidal effect entry was “moderate bactericidal effect”. Besides, the “viable count of the culture” value in assay [2] (Trifluoperazine 10 to 30 μM, culture contained 10^7 CFU/ml) is recorded as 10^6 CFU/ml. The “reversibility of the effect on aggregation upon removal of the drug” value in assay [3] (30 μM for 30 minutes, then medium replaced) is recorded as “reversible”. Further, in assay [3], the “dispersion of bacterial aggregates formed in suspension” value is “induced their dispersion”. In addition, in assay [3] (time lapse video microscopy, 50 μM), the “time after addition within which dispersion of aggregates occurs” value fell in the range of 10 to 15 min.
